Assay results published in PubChem BioAssay (NCI).
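Growth conditions: 96-well plates. Treatment: test compound, 48 hours, 5 concentrations. Analysis: linear interpolation between bracketing concentrations; unreached endpoints set to highest concentration. At the TGI there is no net growth.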

Key:
Experiment in all cases: NCI anticancer screen, dose series, 48 h
NCI-H226 lung = test system: NCI-H226 lung
ACHN renal = test system: ACHN renal
DMS 114 small cell lung = test system: DMS 114 small cell lung
LXFL 529 NSCLC = test system: LXFL 529 NSCLC
SF-539 CNS = test system: SF-539 CNS
OVCAR-5 ovarian = test system: OVCAR-5 ovarian
RXF 393 renal = test system: RXF 393 renal
HCT-116 colon = test system: HCT-116 colon
OVCAR-8 ovarian = test system: OVCAR-8 ovarian
SW-620 colon = test system: SW-620 colon
EKVX NSCLC = test system: EKVX NSCLC
NCI-H23 lung = test system: NCI-H23 lung
HOP-62 NSCLC = test system: HOP-62 NSCLC
SK-MEL-2 melanoma = test system: SK-MEL-2 melanoma
DLD-1 colon = test system: DLD-1 colon
A549 NSCLC = test system: A549 NSCLC
MALME-3M melanoma = test system: MALME-3M melanoma
HOP-92 NSCLC = test system: HOP-92 NSCLC
SK-MEL-28 melanoma = test system: SK-MEL-28 melanoma
SK-MEL-5 melanoma = test system: SK-MEL-5 melanoma
UACC-62 melanoma = test system: UACC-62 melanoma
M19-MEL melanoma = test system: M19-MEL melanoma
DMS 273 small cell lung = test system: DMS 273 small cell lung
RPMI-8226 leukemia = test system: RPMI-8226 leukemia
HL-60(TB) leukemia = test system: HL-60(TB) leukemia
HOP-18 NSCLC = test system: HOP-18 NSCLC
HCC-2998 colon = test system: HCC-2998 colon
COLO 205 colon = test system: COLO 205 colon
UACC-257 melanoma = test system: UACC-257 melanoma
OVCAR-4 ovarian = test system: OVCAR-4 ovarian
KM12 colon = test system: KM12 colon
UO-31 renal = test system: UO-31 renal
KM20L2 colon = test system: KM20L2 colon
HCT-15 colon = test system: HCT-15 colon
HT29 colon = test system: HT29 colon
SR leukemia = test system: SR leukemia
NCI-H522 lung = test system: NCI-H522 lung
K-562 leukemia = test system: K-562 leukemia
786-0 renal = test system: 786-0 renal
U251 CNS = test system: U251 CNS
SF-295 CNS = test system: SF-295 CNS
SNB-75 CNS = test system: SNB-75 CNS
SNB-19 CNS = test system: SNB-19 CNS
CCRF-CEM leukemia = test system: CCRF-CEM leukemia
SF-268 CNS = test system: SF-268 CNS
SNB-78 CNS = test system: SNB-78 CNS
MOLT-4 leukemia = test system: MOLT-4 leukemia
IGROV1 ovarian = test system: IGROV1 ovarian
SK-OV-3 ovarian = test system: SK-OV-3 ovarian
M14 melanoma = test system: M14 melanoma
NCI-H460 lung = test system: NCI-H460 lung
SN12C renal = test system: SN12C renal
A498 renal = test system: A498 renal
LOX IMVI melanoma = test system: LOX IMVI melanoma
OVCAR-3 ovarian = test system: OVCAR-3 ovarian
TK-10 renal = test system: TK-10 renal
CAKI-1 renal = test system: CAKI-1 renal

Measured: TGI

N/N=c1\c2ccccc2c2ccc3c4ccccc4/c(=N\N)c3c12
not listed: A498 renal | LOX IMVI melanoma | OVCAR-3 ovarian | TK-10 renal | CAKI-1 renal
> 100 µM: all other assays above

CCOC(=O)C1=C(C)N2CCOC2(C)C(C(=O)OC)C1c1cccc(Cl)c1 (stereo not given)
not listed: NCI-H226 lung | RXF 393 renal | OVCAR-4 ovarian | MOLT-4 leukemia
> 100 µM: all other assays above
